Experimental data published in patent publication US11427549B2, “Pyrimidinyloxy benzo-fused compounds as herbicides” (FMC Corporation, priority 2017, dated 2022).

How the values were obtained:
kochia (Kochia scoparia) [1] = experiment: Test A preemergence, kochia; type: in vivo; details: Bassia scoparia, pre-emergence, 240 h, 0 to 100 scale (0 no effect, 100 complete control), read-out: Plant response rating, Kochia; for pest or weed control at 31 g/ha: 31 g ai/ha; for pest or weed control at 125 g/ha: 125 g ai/ha
rice (Oryza sativa) = experiment: Test B flooded paddy test, rice; details: Oryza sativa, read-out: Plant response rating, Rice (0 to 100 scale, 0 is no effect, 100 is complete control)
[2] = tested on: ragweed (common ragweed, Ambrosia elatior); experiment: Test A postemergence, ragweed; type: in vivo; details: Ambrosia artemisiifolia, post-emergence, 240 h, 0 to 100 scale (0 no effect, 100 complete control), read-out: Plant response rating, Ragweed; for pest or weed control at 31 g/ha: 31 g ai/ha; for pest or weed control at 125 g/ha: 125 g ai/ha
[3] = tested on: galium (catchweed bedstraw, Galium aparine); experiment: Test A postemergence, galium; type: in vivo; details: Galium, post-emergence, 240 h, 0 to 100 scale (0 no effect, 100 complete control), read-out: Plant response rating, Galium; for pest or weed control at 31 g/ha: 31 g ai/ha; for pest or weed control at 125 g/ha: 125 g ai/ha
[4] = tested on: blackgrass (Alopecurus myosuroides); experiment: Test A postemergence, blackgrass; type: in vivo; details: Alopecurus myosuroides, post-emergence, 240 h, 0 to 100 scale (0 no effect, 100 complete control), read-out: Plant response rating, Blackgrass; for pest or weed control at 31 g/ha: 31 g ai/ha; for pest or weed control at 125 g/ha: 125 g ai/ha
[5] = tested on: pigweed (Amaranthus retroflexus); experiment: Test A postemergence, pigweed; type: in vivo; details: Amaranthus retroflexus, post-emergence, 240 h, 0 to 100 scale (0 no effect, 100 complete control), read-out: Plant response rating, Pigweed; for pest or weed control at 31 g/ha: 31 g ai/ha; for pest or weed control at 125 g/ha: 125 g ai/ha
[6] = tested on: barnyardgrass (Echinochloa crus-galli); experiment: Test B flooded paddy test, barnyardgrass; details: Echinochloa crus-galli, read-out: Plant response rating, Barnyardgrass (0 to 100 scale, 0 is no effect, 100 is complete control)
kochia (Kochia scoparia) [7] = experiment: Test A postemergence, kochia; type: in vivo; details: Bassia scoparia, post-emergence, 240 h, 0 to 100 scale (0 no effect, 100 complete control), read-out: Plant response rating, Kochia; for pest or weed control at 31 g/ha: 31 g ai/ha; for pest or weed control at 125 g/ha: 125 g ai/ha
[8] = tested on: ragweed (common ragweed, Ambrosia elatior); experiment: Test A preemergence, ragweed; type: in vivo; details: Ambrosia artemisiifolia, pre-emergence, 240 h, 0 to 100 scale (0 no effect, 100 complete control), read-out: Plant response rating, Ragweed; for pest or weed control at 31 g/ha: 31 g ai/ha; for pest or weed control at 125 g/ha: 125 g ai/ha
[9] = tested on: wheat (Triticum aestivum); experiment: Test A postemergence, wheat; type: in vivo; details: Triticum aestivum, post-emergence, 240 h, 0 to 100 scale (0 no effect, 100 complete control), read-out: Plant response rating, Wheat; for plant injury at 31 g/ha: 31 g ai/ha; for plant injury at 125 g/ha: 125 g ai/ha
[10] = tested on: ducksalad (Heteranthera limosa); experiment: Test B flooded paddy test, ducksalad; details: Heteranthera limosa, read-out: Plant response rating, Ducksalad (0 to 100 scale, 0 is no effect, 100 is complete control)
[11] = tested on: ryegrass, Italian (Italian ryegrass, Lolium multiflorum); experiment: Test A postemergence, ryegrass, Italian; type: in vivo; details: Lolium multiflorum, post-emergence, 240 h, 0 to 100 scale (0 no effect, 100 complete control), read-out: Plant response rating, Ryegrass, Italian; for pest or weed control at 31 g/ha: 31 g ai/ha; for pest or weed control at 125 g/ha: 125 g ai/ha
corn (Zea mays) = experiment: Test A postemergence, corn; type: in vivo; details: Zea mays, post-emergence, 240 h, 0 to 100 scale (0 no effect, 100 complete control); for Corn plant response rating (crop injury, 0 = no effect, 100 = complete kill) at 31 g/ha: 31 g ai/ha; for Corn plant response rating (crop injury, 0 = no effect, 100 = complete kill) at 125 g/ha: 125 g ai/ha
[12] = tested on: barnyardgrass (Echinochloa crus-galli); experiment: Test A postemergence, barnyardgrass; type: in vivo; details: Echinochloa crus-galli, post-emergence, 240 h, 0 to 100 scale (0 no effect, 100 complete control), read-out: Plant response rating, Barnyardgrass; for pest or weed control at 31 g/ha: 31 g ai/ha; for pest or weed control at 125 g/ha: 125 g ai/ha
[13] = tested on: pigweed (Amaranthus retroflexus); experiment: Test A preemergence, pigweed; type: in vivo; details: Amaranthus retroflexus, pre-emergence, 240 h, 0 to 100 scale (0 no effect, 100 complete control), read-out: Plant response rating, Pigweed; for pest or weed control at 31 g/ha: 31 g ai/ha; for pest or weed control at 125 g/ha: 125 g ai/ha
[14] = tested on: barnyardgrass (Echinochloa crus-galli); experiment: Test A preemergence, barnyardgrass; type: in vivo; details: Echinochloa crus-galli, pre-emergence, 240 h, 0 to 100 scale (0 no effect, 100 complete control), read-out: Plant response rating, Barnyardgrass; for pest or weed control at 31 g/ha: 31 g ai/ha; for pest or weed control at 125 g/ha: 125 g ai/ha
[15] = tested on: ryegrass, Italian (Italian ryegrass, Lolium multiflorum); experiment: Test A preemergence, ryegrass, Italian; type: in vivo; details: Lolium multiflorum, pre-emergence, 240 h, 0 to 100 scale (0 no effect, 100 complete control), read-out: Plant response rating, Ryegrass, Italian; for pest or weed control at 31 g/ha: 31 g ai/ha; for pest or weed control at 125 g/ha: 125 g ai/ha

Row | SMILES | pest or weed control at 31 g/ha (kochia (Kochia scoparia) [1]) | pest or weed control at 125 g/ha (kochia (Kochia scoparia) [1]) | plant injury at 250 g/ha (rice (Oryza sativa)) | pest or weed control at 31 g/ha [2] | pest or weed control at 125 g/ha [2] | pest or weed control at 31 g/ha [3] | pest or weed control at 125 g/ha [3] | pest or weed control at 31 g/ha [4] | pest or weed control at 125 g/ha [4] | pest or weed control at 31 g/ha [5] | pest or weed control at 125 g/ha [5] | pest or weed control at 250 g/ha [6] | pest or weed control at 31 g/ha (kochia (Kochia scoparia) [7]) | pest or weed control at 125 g/ha (kochia (Kochia scoparia) [7]) | pest or weed control at 31 g/ha [8] | pest or weed control at 125 g/ha [8] | plant injury at 31 g/ha [9] | plant injury at 125 g/ha [9] | pest or weed control at 250 g/ha [10] | pest or weed control at 31 g/ha [11] | also measured
1 | FC(F)(F)CC[C@@H]1OCc2cccc(Oc3ncc(Cl)cn3)c21 [Compound 21, 5-Chloro-2-[[(3S)-1,3-dihydro-3-(3,3,3-trifluoropropyl)-4-isobenzofuranyl]oxy]-pyrimidine] | 0% | 0% | 0% | 0% | 10% | 10% | 30% | 10% | 30% | 20% | 50% | 0% | 20% | 60% | 0% | 0% | 0% | 0% | 70% | 0% | pest or weed control at 125 g/ha [11]: 0%; Corn plant response rating (crop injury, 0 = no effect, 100 = complete kill) at 31 g/ha (corn (Zea mays)): 0%; Corn plant response rating (crop injury, 0 = no effect, 100 = complete kill) at 125 g/ha (corn (Zea mays)): 20%; pest or weed control at 31 g/ha [12]: 0%; pest or weed control at 125 g/ha [12]: 20%; pest or weed control at 31 g/ha [13]: 0%; pest or weed control at 125 g/ha [13]: 0%; pest or weed control at 31 g/ha [14]: 0%; pest or weed control at 125 g/ha [14]: 20%; pest or weed control at 31 g/ha [15]: 0%; pest or weed control at 125 g/ha [15]: 0%
2 | O=C1c2cccc(Oc3ncc(Cl)cn3)c2C1CCCC(F)(F)F (stereo not drawn) [Compound 22, 2-[(5-Chloro-2-pyrimidinyl)oxy]-8-(4,4,4-trifluorobutyl)bicyclo[4.2.0]octa-1,3,5-trien-7-one] | 20% | 80% | 0% | 0% | 20% | 50% | 80% | 0% | 50% | 30% | 80% | 35% | 40% | 80% | 0% | 0% | 0% | 0% | 80% | 30% | pest or weed control at 125 g/ha [11]: 20%; Corn plant response rating (crop injury, 0 = no effect, 100 = complete kill) at 31 g/ha (corn (Zea mays)): 20%; Corn plant response rating (crop injury, 0 = no effect, 100 = complete kill) at 125 g/ha (corn (Zea mays)): 30%; pest or weed control at 31 g/ha [12]: 20%; pest or weed control at 125 g/ha [12]: 40%; pest or weed control at 31 g/ha [13]: 0%; pest or weed control at 125 g/ha [13]: 30%; pest or weed control at 31 g/ha [14]: 0%; pest or weed control at 125 g/ha [14]: 60%; pest or weed control at 31 g/ha [15]: 0%; pest or weed control at 125 g/ha [15]: 20%
3 | O=C1OC(CCC(F)(F)F)Cc2c(Oc3ncc(Cl)cn3)cccc21 (stereo not drawn) [Compound 23, 5-[(5-Chloro-2-pyrimidinyl)oxy]-3,4-dihydro-3-(3,3,3-trifluoropropyl)-1H-2-benzopyran-1-one] | 0% | 60% | 0% | 0% | 10% | 40% | 70% | 20% | 30% | 60% | 70% | 0% | 20% | 70% | 0% | 0% | 20% | 30% | 0% | 0% | pest or weed control at 125 g/ha [11]: 0%; Corn plant response rating (crop injury, 0 = no effect, 100 = complete kill) at 31 g/ha (corn (Zea mays)): 10%; Corn plant response rating (crop injury, 0 = no effect, 100 = complete kill) at 125 g/ha (corn (Zea mays)): 20%; pest or weed control at 31 g/ha [12]: 20%; pest or weed control at 125 g/ha [12]: 20%; pest or weed control at 31 g/ha [13]: 20%; pest or weed control at 125 g/ha [13]: 100%; pest or weed control at 31 g/ha [14]: 0%; pest or weed control at 125 g/ha [14]: 30%; pest or weed control at 31 g/ha [15]: 0%; pest or weed control at 125 g/ha [15]: 0%
